Measured values from patent publication US9012500B2, “PKC-ε activator” (Nishizaki Bioinformation Research Institute, priority 2010, dated 2015).

Tests used:
[1] = test system: senescence-accelerated mouse (SAMP8); assay: Water maze test in senescence-accelerated mouse (SAMP8); assay type: in vivo; conditions: 8 days
Method: Using senescence-accelerated mouse (accelerated-senescence-prone mice 8: SAMP8) and normal senescence mouse (accelerated-senescence-resistant mice 1: SAMR1) as a control thereof, a water maze test was performed. Male SAMP8 and SAMR1 (22- to 25-week-old) were available from Takeda Pharmaceutical Company Limited (Osaka, Japan). The mice were individually raised in a cage at 23±1° C., 12 hr light/dark cycle (lighted at 7:00 am), and allowed to freely ingest feed (solid feed) and water.
Racemate DCP-LA and 4 optical isomers DCP-LA (α,α-, α,β-, β,α-, β,β-DCP-LA), each dissolved in 0.1 ml polyethylene glycol (PEG), or 0.1 ml PEG were orally administered once a day from the day when the water maze test was started. For each group, the water maze test was performed twice a day for 8 days, and the time required to reach a platform (acquisition latency) was measured.
For the water maze test, a circular plastic water tank (diameter 90 cm, depth 36 cm) was used. The inside of the water tank was completely painted in black, and dark water with India ink was filled up to 20 cm from the bottom (22° C.). A platform (diameter 11 cm) painted in black was placed in water such that it was 1 cm below the water surface. The water tank was placed in a test room, and several marks seen by the mice from the water tank were put thereon. During the test, the position of the marks was not changed. A platform was placed a predetermined position from the equal distance from the center and the end of the water tank, namely, center of one quadrant. At one of the randomly selected 5 points, the mouse was released facing the wall of the water tank, and the time necessary for evacuating on the platform (acquisition latency) was measured. When smoothly evacuated, the mouse was left on the platform for 10 seconds. From the day of water maze test and during the test, polyethylene glycol (PEG) alone or racemate DCP-LA (1 mg/kg), α,α-DCP-LA (0.25 mg/kg), α,β-DCP-LA (0.25 mg/kg), β,α-DCP-LA (0.25 mg/kg), or β,β-DCP-LA (0.25 mg/kg), each dissolved in PEG, was orally administered every day. The water maze test was performed twice a day, and the second test was started at 2 min from the first test. The test was continuously performed for 8 days, and the average value (±SEM) of acquisition latency of continuous 2 days until the mouse reached the platform was calculated (each n=5).

[2] = test system: dopamine release from the striatum; assay: Dopamine release from rat striatum sections (HPLC); assay type: cell-based
[3] = test system: serotonin release from the hypothalamus; assay: Serotonin release from rat hypothalamus sections (HPLC); assay type: cell-based
[4] = test system: glutamic acid release from the hippocampus; assay: Glutamic acid release from rat hippocampus sections (HPLC); assay type: cell-based
[5] = test system: amyloid β peptide- or scopolamine-treated rat; conditions: non-patent document 4; cited from earlier work
[6] = test system: nerve cell; conditions: patent document 2; cited from earlier work
[7] = target: T1, PKC-ε (Homo sapiens, UniProt Q02156); conditions: non-patent document 1; cited from earlier work
T1 sequence (Q02156 1-737): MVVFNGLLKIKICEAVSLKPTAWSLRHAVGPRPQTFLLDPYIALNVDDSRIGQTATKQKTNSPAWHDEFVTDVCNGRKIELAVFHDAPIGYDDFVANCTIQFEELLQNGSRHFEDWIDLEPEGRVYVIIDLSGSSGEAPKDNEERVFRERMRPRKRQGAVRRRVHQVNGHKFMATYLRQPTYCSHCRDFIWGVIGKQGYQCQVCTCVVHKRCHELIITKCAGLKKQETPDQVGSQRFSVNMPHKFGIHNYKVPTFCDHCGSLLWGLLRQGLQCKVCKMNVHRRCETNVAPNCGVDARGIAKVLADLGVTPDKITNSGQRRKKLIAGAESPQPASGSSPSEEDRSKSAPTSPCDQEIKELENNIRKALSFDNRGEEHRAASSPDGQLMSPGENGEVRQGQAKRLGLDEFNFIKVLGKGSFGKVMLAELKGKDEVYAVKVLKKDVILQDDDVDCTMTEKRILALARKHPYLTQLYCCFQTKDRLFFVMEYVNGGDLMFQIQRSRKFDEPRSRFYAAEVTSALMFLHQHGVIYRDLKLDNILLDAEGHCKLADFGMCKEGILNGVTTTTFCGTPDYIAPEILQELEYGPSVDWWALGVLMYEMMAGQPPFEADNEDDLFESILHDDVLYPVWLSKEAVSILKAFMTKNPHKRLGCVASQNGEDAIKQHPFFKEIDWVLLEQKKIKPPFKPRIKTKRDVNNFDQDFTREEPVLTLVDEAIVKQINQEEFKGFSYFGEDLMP

[8] = test system: senescence-accelerated mouse; conditions: non-patent document 2; cited from earlier work
[9] = target: α7 nicotinic acetylcholine receptor (Homo sapiens, UniProt P36544); conditions: α7 nicotinic acetylcholine receptor at the glutamatergic presynaptic terminal as target, non-patent document 5; cited from earlier work
α7 nicotinic acetylcholine receptor, sequence (P36544 23-502): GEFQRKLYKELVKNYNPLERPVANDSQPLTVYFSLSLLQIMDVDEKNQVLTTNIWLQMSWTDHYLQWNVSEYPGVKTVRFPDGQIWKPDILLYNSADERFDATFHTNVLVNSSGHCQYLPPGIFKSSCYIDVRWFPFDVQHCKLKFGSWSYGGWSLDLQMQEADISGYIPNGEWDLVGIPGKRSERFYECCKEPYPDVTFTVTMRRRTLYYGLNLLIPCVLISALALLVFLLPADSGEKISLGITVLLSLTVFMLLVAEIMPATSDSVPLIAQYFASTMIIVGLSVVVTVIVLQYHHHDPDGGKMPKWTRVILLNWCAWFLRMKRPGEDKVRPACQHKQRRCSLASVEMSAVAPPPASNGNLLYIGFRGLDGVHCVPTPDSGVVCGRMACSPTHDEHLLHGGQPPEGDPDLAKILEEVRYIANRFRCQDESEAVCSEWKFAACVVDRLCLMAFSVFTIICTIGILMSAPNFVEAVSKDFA

[10] = test system: hippocampus nerve cells; conditions: non-patent document 3; cited from earlier work
[11] = SAMP8, 0.25 mg/kg orally once a day

In the case of `CCCCC[C@H]1C[C@H]1C[C@H]1C[C@@H]1CCCCCCCC(=O)O` [β,α-DCP-LA, 8-[(1S,2R)-2-{(1S,2S)-2-pentylcyclopropylmethyl}-cyclopropyl]octanoic acid], the “acquisition latency as compared to the PEG administration group” value [1, 11] is reported as “shortened acquisition latency”.
In the case of `CCCCC[C@H]1C[C@H]1C[C@@H]1C[C@H]1CCCCCCCC(=O)O` [β,β-DCP-LA, 8-[(1R,2S)-2-{(1S,2S)-2-pentylcyclopropylmethyl}-cyclopropyl]octanoic acid], the “acquisition latency as compared to the PEG administration group” value [1, 11] is reported as “shortened acquisition latency”.
With `CN1CCCC1c1cccnc1` (centres unmarked) [nicotine, reference compound] the “dopamine release, substance alone vs non-treated group” value [2] was “did not show a remarkable difference”, the “serotonin release, substance alone vs non-treated group” value [3] was “did not show a remarkable difference” and the “glutamic acid release, substance alone vs non-treated group” value [4] was “did not show a remarkable difference”.
With `CN(C)CCCn1cc(C2=C(c3c[nH]c4ccccc34)C(=O)NC2=O)c2ccccc21` [GF109203X, reference compound] the “effect of inhibitor on α,β-DCP-LA enhancement of nicotine-caused dopamine release” value ([2]; inhibitor 100 nM, FIG. 12) was “inhibited”, the “effect of inhibitor on α,β-DCP-LA enhancement of nicotine-caused serotonin release” value ([3]; inhibitor 100 nM, FIG. 15) was “inhibited” and the “effect of inhibitor on α,β-DCP-LA enhancement of nicotine-caused glutamic acid release” value ([4]; inhibitor 100 nM, FIG. 9) was “inhibited”.
In the case of `CCCCCC1CC1CC1CC1CCCCCCCC(=O)O` (racemic) [racemate DCP-LA, 8-(2-(2-pentyl-cyclopropylmethyl)-cyclopropyl)-octanoic acid], the “cognitive dysfunction of amyloid β peptide- or scopolamine-treated rat” value [5] is given as “improves cognitive dysfunction”, the “nerve cell death induced by oxidative stress” value [6] is given as “suppress nerve cell death” and the PKC-ε activation [7] is given as “selectively and directly activates PKC-ε”. For the same molecule, the “acquisition latency as compared to the PEG administration group” value ([1]; SAMP8, 1 mg/kg orally once a day) was “shortened acquisition latency”, the “cognitive dysfunction of senescence-accelerated mouse” value [8] was “improves cognitive dysfunction” and the hippocampus synaptic transmission [9] was “promotes hippocampus synaptic transmission”. The “release of γ aminobutyric acid from hippocampus nerve cells” value [10] was “increases release of γ aminobutyric acid”.
For `CCCCC[C@@H]1C[C@@H]1C[C@H]1C[C@@H]1CCCCCCCC(=O)O` [α,α-DCP-LA, 8-[(1S,2R)-2-{(1R,2R)-2-pentylcyclopropylmethyl}-cyclopropyl]octanoic acid], the “acquisition latency as compared to the PEG administration group” value [1, 11] was “shortened acquisition latency” and the “acquisition latency as compared to the racemate DCP-LA (1 mg/kg) administration group” value [1, 11] was “significantly shortened acquisition latency”.
